From ChEMBL document CHEMBL2046442, “Rationally designing safer anilines: the challenging case of 4-aminobiphenyls” (J Med Chem, 2012)

Experiments:
Assay type in all cases: toxicity, organism-based
Settings in all cases: salmonella enterica subsp. enterica serovar typhimurium
Salmonella typhimurium [1] = assay: Induction of mutagenesis in Salmonella typhimurium TA100 up to 5000 ug/plate by Ames test in presence of rat liver S9 fraction
Salmonella typhimurium [2] = assay: Induction of mutagenesis in Salmonella typhimurium TA98 up to 5000 ug/plate by Ames test
Salmonella typhimurium [3] = assay: Induction of mutagenesis in Salmonella typhimurium TA98 up to 5000 ug/plate by Ames test in presence of rat liver S9 fraction
Salmonella typhimurium [4] = assay: Induction of mutagenesis in Salmonella typhimurium TA100 up to 5000 ug/plate by Ames test
Salmonella typhimurium [5] = assay: Induction of mutagenesis in Salmonella typhimurium TA100 at 160 ug/plate by Ames test in presence of rat liver S9 fraction relative to control
Salmonella typhimurium [6] = assay: Induction of mutagenesis in Salmonella typhimurium TA98 at 500 ug/plate by Ames test in presence of rat liver S9 fraction relative to control
Salmonella typhimurium [7] = assay: Induction of mutagenesis in Salmonella typhimurium TA98 at 160 ug/plate by Ames test in presence of rat liver S9 fraction relative to control
Salmonella typhimurium [8] = assay: Induction of mutagenesis in Salmonella typhimurium TA98 at 1600 ug/plate by Ames test in presence of rat liver S9 fraction relative to control
Salmonella typhimurium [9] = assay: Induction of mutagenesis in Salmonella typhimurium TA100 at 50 ug/plate by Ames test in presence of rat liver S9 fraction relative to control
Salmonella typhimurium [10] = assay: Induction of mutagenesis in Salmonella typhimurium TA100 at 500 ug/plate by Ames test in presence of rat liver S9 fraction relative to control
Salmonella typhimurium [11] = assay: Induction of mutagenesis in Salmonella typhimurium TA98 at 50 ug/plate by Ames test in presence of rat liver S9 fraction relative to control
Salmonella typhimurium [12] = assay: Induction of mutagenesis in Salmonella typhimurium TA100 at 16 ug/plate by Ames test in presence of rat liver S9 fraction relative to control

N#Cc1cc(N)ccc1-c1ccccc1Cl
Activity (Salmonella typhimurium [1]): Non-toxic | Activity (Salmonella typhimurium [2]): Non-toxic | Activity (Salmonella typhimurium [3]): Non-toxic | Activity (Salmonella typhimurium [4]): Non-toxic

Nc1ccc(-c2c(F)cccc2F)cc1
fold change (FC) (Salmonella typhimurium [5]): 3 | Activity (Salmonella typhimurium [2]): Non-toxic | fold change (FC) (Salmonella typhimurium [6]): 7 | Activity (Salmonella typhimurium [4]): Non-toxic

Nc1ccc(-c2ccccc2F)c(F)c1
Activity (Salmonella typhimurium [1]): Non-toxic | Activity (Salmonella typhimurium [2]): Non-toxic | Activity (Salmonella typhimurium [3]): Non-toxic | Activity (Salmonella typhimurium [4]): Non-toxic

Nc1ccc(-c2ccccc2Cl)cc1
fold change (FC) (Salmonella typhimurium [7]): 11 | fold change (FC) (Salmonella typhimurium [5]): 5 | Activity (Salmonella typhimurium [2]): Non-toxic | Activity (Salmonella typhimurium [4]): Non-toxic

Nc1ccc(-c2ccccc2Cl)c(F)c1
Activity (Salmonella typhimurium [1]): Non-toxic | Activity (Salmonella typhimurium [2]): Non-toxic | Activity (Salmonella typhimurium [3]): Non-toxic | Activity (Salmonella typhimurium [4]): Non-toxic

CS(=O)(=O)NCc1ccc(-c2ccc(N)cc2F)c(Cl)c1
Activity (Salmonella typhimurium [1]): Non-toxic | Activity (Salmonella typhimurium [2]): Non-toxic | fold change (FC) (Salmonella typhimurium [8]): 3 | Activity (Salmonella typhimurium [4]): Non-toxic

N#Cc1ccc(-c2ccc(N)cc2F)c(Cl)c1
Activity (Salmonella typhimurium [1]): Non-toxic | Activity (Salmonella typhimurium [2]): Non-toxic | Activity (Salmonella typhimurium [3]): Non-toxic | Activity (Salmonella typhimurium [4]): Non-toxic

Nc1ccc(-c2ccccc2)c(F)c1
fold change (FC) (Salmonella typhimurium [7]): 2 | fold change (FC) (Salmonella typhimurium [5]): 3 | Activity (Salmonella typhimurium [2]): Non-toxic | Activity (Salmonella typhimurium [4]): Non-toxic

Nc1ccc(-c2ccccc2)c(Cl)c1
Activity (Salmonella typhimurium [1]): Non-toxic | Activity (Salmonella typhimurium [2]): Non-toxic | Activity (Salmonella typhimurium [3]): Non-toxic | Activity (Salmonella typhimurium [4]): Non-toxic

Nc1ccc(-c2ccccc2F)cc1
fold change (FC) (Salmonella typhimurium [7]): 26 | fold change (FC) (Salmonella typhimurium [5]): 10 | Activity (Salmonella typhimurium [2]): Non-toxic | Activity (Salmonella typhimurium [4]): Non-toxic

Nc1ccc(-c2cccc(Cl)c2)cc1
fold change (FC) (Salmonella typhimurium [7]): 47 | fold change (FC) (Salmonella typhimurium [9]): 12 | Activity (Salmonella typhimurium [2]): Non-toxic | Activity (Salmonella typhimurium [4]): Non-toxic

Nc1ccc(-c2ccc(Cl)cc2)cc1
fold change (FC) (Salmonella typhimurium [7]): 54 | fold change (FC) (Salmonella typhimurium [10]): 14 | Activity (Salmonella typhimurium [2]): Non-toxic | Activity (Salmonella typhimurium [4]): Non-toxic

Nc1ccc(-c2c(F)cccc2F)c(F)c1
Activity (Salmonella typhimurium [1]): Non-toxic | Activity (Salmonella typhimurium [2]): Non-toxic | Activity (Salmonella typhimurium [3]): Non-toxic | Activity (Salmonella typhimurium [4]): Non-toxic

Nc1ccc(-c2ccc(F)cc2F)c(F)c1
Activity (Salmonella typhimurium [1]): Non-toxic | Activity (Salmonella typhimurium [2]): Non-toxic | Activity (Salmonella typhimurium [3]): Non-toxic | Activity (Salmonella typhimurium [4]): Non-toxic

N#Cc1cc(Cl)ccc1-c1ccc(N)cc1F
Activity (Salmonella typhimurium [1]): Non-toxic | Activity (Salmonella typhimurium [2]): Non-toxic | Activity (Salmonella typhimurium [3]): Non-toxic | Activity (Salmonella typhimurium [4]): Non-toxic

Nc1ccc(-c2c(F)cccc2Cl)c(F)c1
Activity (Salmonella typhimurium [1]): Non-toxic | Activity (Salmonella typhimurium [2]): Non-toxic | Activity (Salmonella typhimurium [3]): Non-toxic | Activity (Salmonella typhimurium [4]): Non-toxic

Nc1ccc(-c2ccccc2)cc1Cl
fold change (FC) (Salmonella typhimurium [9]): 37 | Activity (Salmonella typhimurium [2]): Non-toxic | fold change (FC) (Salmonella typhimurium [11]): 54 | Activity (Salmonella typhimurium [4]): Non-toxic

Nc1ccc(-c2ccccc2)cc1F
fold change (FC) (Salmonella typhimurium [12]): 27 | Activity (Salmonella typhimurium [2]): Non-toxic | fold change (FC) (Salmonella typhimurium [11]): 54 | Activity (Salmonella typhimurium [4]): Non-toxic

Nc1ccc(-c2ccc(F)cc2)cc1
fold change (FC) (Salmonella typhimurium [7]): 43 | fold change (FC) (Salmonella typhimurium [5]): 21 | Activity (Salmonella typhimurium [2]): Non-toxic | Activity (Salmonella typhimurium [4]): Non-toxic

Nc1ccc(-c2cccc(F)c2)cc1
fold change (FC) (Salmonella typhimurium [7]): 38 | fold change (FC) (Salmonella typhimurium [5]): 13 | Activity (Salmonella typhimurium [2]): Non-toxic | Activity (Salmonella typhimurium [4]): Non-toxic
